Several values for one entry are separate records, joined by “and”; a condition that tells them apart may be missing. Identical values can stand only once. Like-named read-outs stand apart in the source and are kept apart here.
How the values were obtained:
[1] = Stability of complexes at 37 °C in the dark (HPLC, UV/Vis); format: physicochemical; conditions: for Stability, % remaining at 24 h: 37 °C in H2O, dark
Experimental: The stability of each complex was assessed over 24 h under aqueous conditions at 37 °C (Supplementary Figs. 12–15). […] Given the potency of the caged inhibitor, thermal stability is of critical importance, making complex 6 the preferred photocaged candidate.
Opti-MEM with 2% fetal bovine serum (right) at 37 °C in the dark over the course of 0 (blue line) to 24 h (black dashed line). Compounds were tested in triplicate (n = 3), the data for one replicate are presented. Complexes 4 and 5 slowly degraded in the experiment condition (see HPLC traces, Figures S13–14). The decrease in absorbance for complex 6 is explained by the slow aggregation of the compound in the 96-well plate.
(1 picture or pasted object on this page, not shown here)
Supplementary Figure 13. a HPLC chromatogram analysis of stability of 4 (50 µM in di-H2O) before (black dashed line, purity > 92 % ) and after incubation at 37 °C for 24 hours (red line). At 24 hours, 43 % of 4 was […]
Supplementary Figure 14. HPLC chromatogram analysis of stability of 5 (50 µM in di-H2O) before (black dashed line, purity > 97 %) and after incubation at 37 °C for 24 hours (red line). At 24 hours, 50 % of 5 was observed […]
Supplementary Figure 15. HPLC chromatogram analysis of stability of 6 (40 µM in di-H O : MeCN mixture (4:1), […]
MeCN was added to reduce the aggregation) before (black dashed line, purity > 99.5 %) and after incubation at 37 °C for 24 hours. At 24 hours, less than 2 % degradation was observed (calculated by area, detection wavelength = […]
Supplementary Figure 16. HPLC chromatogram analysis of stability of 6 (40 µM) in 5 % DMSO / di-H2O with a 100 μM GSH, b 100 μM imidazole and c acidic condition (pH = 1) after incubation at 37 °C for 72 hours. Less than […]
detection wavelength = 280 nm). […]
imidazole and c acidic condition (pH = 1) after incubation at 37 °C for 72 hours. d At 72 hours less than 7 % degradation was observed by HPLC at pH = 1 (calculated by area, detection wavelength = 280 nm). Compounds were tested in triplicate (n = 3), the data for one replicate are presented.

[2] = format: physicochemical
From the text: Liver Weight Blood Flow Protein
(g/kg Body Weight) (mL/min/kg) (mg/g liver
Supplementary Table 7. Quantum yields of photosubstitution in different solvents.
Compound Φ(PS) 5% DMSO in H2Oa Φ(PS) Opti-MEMa Φ(PS) CH3OH […]
a Quantum yield for photosubstitution, ΦPS, in 5% DMSO in H2O and Opti-MEM, calculated by optical approach
(Fig. S8-10). b ΦPS in 5% DMSO in H2O, determined by HPLC approach. HPLC was used due to overlap in absorbance profiles for 6 and its photochemical product (Fig. S7).
Supplementary Table 8. Lipinski’s rule of five. […]
a log P was calculated by taking the logarithm of the ratio of the MLCT absorbance of each complex (4-6) in octanol to the corresponding absorbance in H2O.
1. Lameijer, L. N. et al. A Red-Light-Activated Ruthenium-Caged NAMPT Inhibitor Remains Phototoxic in Hypoxic Cancer Cells. Angew. Chem. Int. Ed. Engl. 56, 11549-11553,

[3] = target: T1, CYP1A1 (Homo sapiens, UniProt P04798); assay: In cell activity assay for CYP1A1 (7-ethoxyresorufin conversion, HEK293 T-Rex cells); conditions: for SI (1B1:1A1): ratio of IC50 CYP1A1 to CYP1B1, for complexes 4–6 the IC50 (light) values were used; for IC50: REE; for % Enzyme Activity: CYP1A1, dark
T1 sequence (P04798 1-512): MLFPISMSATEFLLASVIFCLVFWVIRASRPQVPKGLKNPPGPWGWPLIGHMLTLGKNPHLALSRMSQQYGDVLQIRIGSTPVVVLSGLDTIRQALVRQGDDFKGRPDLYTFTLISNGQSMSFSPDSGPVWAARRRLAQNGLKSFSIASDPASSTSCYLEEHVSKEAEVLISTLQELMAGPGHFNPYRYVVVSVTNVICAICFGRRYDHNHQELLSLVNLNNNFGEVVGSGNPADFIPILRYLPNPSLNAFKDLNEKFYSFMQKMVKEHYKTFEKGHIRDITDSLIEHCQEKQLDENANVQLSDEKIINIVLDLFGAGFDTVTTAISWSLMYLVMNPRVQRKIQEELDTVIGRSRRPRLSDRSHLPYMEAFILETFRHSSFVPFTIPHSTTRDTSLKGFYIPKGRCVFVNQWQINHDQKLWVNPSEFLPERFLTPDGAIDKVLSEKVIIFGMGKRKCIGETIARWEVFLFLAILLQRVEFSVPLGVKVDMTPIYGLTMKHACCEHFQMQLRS
From the text: A stable HEK cell line was created with CYP1B1 expression under the control of tetracycline to facilitate regulated and titratable expression (see the Methods section for more details). A cell line was also created for CYP1A1 as a counter screen to evaluate selectivity. […] The fluorogenic substrate, 7-ethoxyresorufin (REE), is a validated substrate for both CYPs and was used in both assays. Cytochrome P450 oxidoreductase (POR) is the required reductase partner for CYPs, and was also overexpressed in these systems to improve catalytic efficiency and the resulting signal for the assay.
Both the CYP and POR expression was under the control of the TetO2 inducible CMV promoter[26].
Cell lines were generated in the HEK293 T-Rex cell line. Following transfection, cells were selected with 500 μg/mL Zeocin, and 7.5 μg/mL Blasticidin to create a stable pool. Inducible expression of CYP and POR was confirmed by immunoblot. […] The lines were maintained with 250 μg/mL Zeocin and 7.5 μg/mL Blasticidin to ensure continued selective pressure.
(§1) Cell lines were seeded onto Geltrex coated 96-well plates at 40,000 cells/well, and grown overnight in DMEM media containing 1 μg/mL tetracycline. The media was then replaced with Opti-MEM supplemented with 2% FBS and 1 μg/mL tetracycline. Compounds were serially diluted in Opti-MEM supplemented with 2% FBS and 1 μg/mL tetracycline and an equal volume of compound added to the cells (n = 3). Following a 1 h incubation, resorufin ethyl ether (REE; for CYP1B1 and 1A1) or dibenzylfluorescein (DBF; for 19A1) was added to the cells for a total concentration of 5 μM for REE and 1 μM for DBF. […] Dose–response curves were generated in Prism and normalized using the no-compound control (set as 100% activity) and the no-cell control (set as 0% activity; this value in the raw data reflects the background fluorescence of the dye alone).
For the light-activated compounds, the experiment was modified as follows: Cells were seeded and grown overnight as described above. Media was replaced with L-15 containing 1 μg/mL tetracycline; L-15 media was used in place of opti-MEM™ to maintain CO2 outside the incubator, and to prevent cellular damage from light. Compounds were serially diluted in L-15 with 1 μg/mL tetracycline and added to the cells followed by a 1 h incubation. […] REE or DBF was added as described above.

[4] = target: T2, CYP1B1 Q332E (Homo sapiens, UniProt Q16678, Q332E); assay: In cell CYP1B1 activity assay, Q332E variant; conditions: for logSI Q332E: log of the ratio of IC50 values mutant vs WT (Fig. 3c)
T2 sequence (Q16678 1-543 Q332E): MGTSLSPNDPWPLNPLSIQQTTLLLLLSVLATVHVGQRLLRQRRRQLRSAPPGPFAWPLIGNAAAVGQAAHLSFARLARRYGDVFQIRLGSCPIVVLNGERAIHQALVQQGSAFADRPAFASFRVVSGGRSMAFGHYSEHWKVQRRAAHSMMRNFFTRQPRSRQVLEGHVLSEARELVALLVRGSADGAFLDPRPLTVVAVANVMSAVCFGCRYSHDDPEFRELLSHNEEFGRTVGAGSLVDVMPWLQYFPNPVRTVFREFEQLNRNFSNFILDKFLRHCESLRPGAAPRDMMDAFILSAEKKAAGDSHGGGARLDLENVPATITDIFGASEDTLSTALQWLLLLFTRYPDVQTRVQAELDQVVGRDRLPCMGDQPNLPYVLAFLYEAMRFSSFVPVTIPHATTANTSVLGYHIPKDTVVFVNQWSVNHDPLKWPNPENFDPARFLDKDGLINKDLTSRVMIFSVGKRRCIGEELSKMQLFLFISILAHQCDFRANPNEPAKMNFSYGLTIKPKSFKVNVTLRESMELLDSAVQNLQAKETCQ
From the text: Site directed mutagenesis was used to probe the importance of specific active-site contacts identified through the structural assessment (Fig. 3a, b) and simulations. In all cases, conservative mutations were made to maintain polar or hydrophobic character and approximate size. The aromatic residues that frame the inhibitor binding site, Phe143 and Phe231, were mutated to Leu to determine the importance of the π interactions. In addition, the Ser127 residue, located in the upper corner of the active site on the B-C loop, was chosen for mutation based on the simulations. This amino acid transiently contacts the inhibitors, but also forms a hydrogen bond with Asp326 of the I-helix, and thus may impact the position of this helix with regards to the B-C loop. […] Rather than directly mutating these residues in the I-helix, neighboring residues Gln332 and Asp333 were targeted, with the hope of interrupting amino acid interactions that position the helix within the active site.
The ratio of IC50 values for the WT vs. the mutant are shown in Fig. 3c and reflects the importance of the specific contact; the log of the value is used to aid in visualization.
as §1

[5] = Stability of compounds in human liver microsomes; conditions: for Remaining, % (NCF=60min): human liver microsomes, no co-factor (no NADPH); for CLint scaled / Remaining, % (T=60min) / half-life / microsomal CLint: human, liver microsomes
[6] = read-out: IC50 CYP1A1 Dark, Dark, n = 3
[7] = read-out: IC50 CYP1A1 Light, Light: 660 nm, 58.7 J/cm^2

## COc1ccc(/C=C/c2cc[n+]([Ru-4]345([n+]6ccccc6-c6cccc([n+]63)-c3cccc[n+]34)[n+]3c(cc(C(=O)[O-])c4ccccc43)-c3cc(C(=O)[O-])c4ccccc4[n+]35)cn2)c(OC)c1 [Compound 5]
[1]; HPLC
  Stability, % remaining at 24 h: 50%
[2]
  log P: -0.5
[3]; at concentrations ≥10 μM (so in the source)
  impact on CYP1A1: no impact
[3]
  SI (1B1:1A1): 460
[3]; [6]
  IC50: 40.9 µM
[3]; [7]
  IC50: 7.82 µM

## COc1cc(/C=C/c2ccc(OC)cc2OC)cc(OC)c1 [Compound 1, reference compound]
[4]
  logSI Q332E: 0.6
[5]
  Remaining, % (NCF=60min): 77.1%
[3]; Log Conc 0.045757
  % Enzyme Activity: 58.9151% and 62.8214% and 61.5139%
[3]; Log Conc 0.522879
  % Enzyme Activity: 20.9441% and 25.477% and 27.5679%
[3]; Log Conc 1
  % Enzyme Activity: 2.088% and 2.407% and 5.1678%
[3]; Log Conc -0.43136
  % Enzyme Activity: 94.4495% and 93.088% and 89.9544%
[3]; Log Conc -0.90849
  % Enzyme Activity: 109.334% and 103.31% and 104.553%
[3]; Log Conc -1.38561
  % Enzyme Activity: 108.032% and 102.127% and 103.391%
[3]; Log Conc -1.86273
  % Enzyme Activity: 103.764% and 105.887% and 103.748%
[3]; Log Conc -2.33985
  % Enzyme Activity: 105.601% and 99.1121% and 95.2869%

## COc1ccc(C=Cc2ccncc2)c(OC)c1 [Compound 3]
[4]
  logSI Q332E: 2.2
[5]
  Remaining, % (NCF=60min): 92.1%
  CLint scaled: 155 mL/min/kg
  Remaining, % (T=60min): 0.6%
  half-life: 8.07 min
  microsomal CLint: 172 µL/min/mg
[3]; Log Conc 0.045757
  % Enzyme Activity: 84.2841% and 102.432% and 105%
[3]; Log Conc 0.522879
  % Enzyme Activity: 59.4676% and 67.9492% and 76.5686%
[3]; Log Conc 1
  % Enzyme Activity: 14.8056% and 20.3883% and 24.2847%
[3]; Log Conc 1.47712
  % Enzyme Activity: 0.5263% and 0.2508% and 0.3665%
[3]; Log Conc -0.43136
  % Enzyme Activity: 103.457% and 112.898% and 125.706%
[3]; Log Conc -0.90849
  % Enzyme Activity: 103.209% and 120.806% and 117.825%
[3]; Log Conc -1.38561
  % Enzyme Activity: 95.9953% and 108.125% and 129.481%
[3]; Log Conc -1.86273
  % Enzyme Activity: 106.428% and 95.389% and 98.1832%

## COc1ccc(/C=C/c2cc[n+]([Ru-4]345([n+]6ccccc6-c6cccc([n+]63)-c3cccc[n+]34)[n+]3c(cc(C(=O)[O-])c4ccccc43)-c3cc(C(=O)[O-])c4ccccc4[n+]35)cc2)c(OC)c1 [Compound 6]
[1]; 5 % DMSO / di-H2O, 100 μM GSH, 37 °C, 72 hours
  degradation with GSH: less than 2%
[1]; 5 % DMSO / di-H2O, 100 μM imidazole, 37 °C, 72 hours
  degradation with imidazole: less than 2%
[1]; HPLC
  Stability, % remaining at 24 h: 98.6%
[1]; 37 °C, di-H2O : MeCN mixture (4:1), HPLC
  degradation at 24 hours: less than 2%
[2]
  log P: 0.2
[3]; Log Conc 0.39794
  % Enzyme Activity: 91.0522% and 92.8898%
[3]; Log Conc 1
  % Enzyme Activity: 101.782% and 110.804%
[3]; Log Conc -0.20412
  % Enzyme Activity: 95.4892% and 97.456%
[3]; Log Conc -0.80618
  % Enzyme Activity: 104.418% and 113.985%
[3]; Log Conc -1.40824
  % Enzyme Activity: 109.608% and 108.283%
[3]; Log Conc -2.0103
  % Enzyme Activity: 108.509% and 109.086%
[3]; Log Conc -2.61236
  % Enzyme Activity: 100.346% and 103.098%
[3]; Log Conc -3.21442
  % Enzyme Activity: 102.096% and 97.9039%
[3]
  SI (1B1:1A1): >100,000
[3]; [6]
  IC50: > 30 µM
[3]; [7]
  IC50: > 30 µM

## COc1ccc(/C=C/c2ccncn2)c(OC)c1 [Compound 2]
[4]
  IC50: 0.402 µM
  Ratio IC50 (mutant)/ IC50 (WT), Q332E: 5.3
  logSI Q332E: 0.7
[5]
  Remaining, % (NCF=60min): 96.5%
  CLint scaled: 181 mL/min/kg
  Remaining, % (T=60min): 0.4%
  half-life: 6.9 min
  microsomal CLint: 201 µL/min/mg
[3]; Log Conc 0.045757
  % Enzyme Activity: 97.5755% and 125.129% and 102.858%
[3]; Log Conc 0.522879
  % Enzyme Activity: 79.4229% and 93.0687% and 81.8125%
[3]; Log Conc 1
  % Enzyme Activity: 15.2494% and 25.1537% and 27.5852%
[3]; Log Conc -0.43136
  % Enzyme Activity: 110.341% and 133.598% and 109.681%
[3]; Log Conc -0.90849
  % Enzyme Activity: 118.484% and 126.806% and 121.555%
[3]; Log Conc -1.38561
  % Enzyme Activity: 117.981% and 113.967% and 112.29%
[3]; Log Conc -1.86273
  % Enzyme Activity: 107.668% and 117.038% and 124.375%
[3]; Log Conc -2.33985
  % Enzyme Activity: 98.3615% and 101.034% and 100.604%
[3]
  SI (1B1:1A1): 175
